For series [1] the following is noted: DSC. In general terms: DSC measures the heat that a sample takes up or gives off during a temperature scan.
The nature of series [2]: Molar enthalpy of transition or fusion. Particulars: Crystal 1; DSC.

We go through one compound from the NIST ThermoML archive (doi:10.1016/j.jct.2019.03.012).

± gives the expanded uncertainty stated by the source.

Consider `CC[NH3+].O=[N+]([O-])[O-]` [ethylammonium nitrate], for which the Triple point temperature in series [1] (Crystal 1) turned out to be 285.15 ± 6 K. In addition, the Glass transition temperature in series [1] (Glass) is -41.00 ± 6 °C. Further, in series [2], the “Molar enthalpy of transition or fusion” value came to 3.15 ± 0.155 kcal/mol.
